In patent US9469674B2 (HAINAN UNIVERSITY, dated 2016):
Several values for one entry are separate records, joined by “and”; a condition that tells them apart may be missing. Equal entries are not always repeated. Entries after “also recorded” stand apart in the source; their conditions may differ. Where two headings read alike, the source gives them in different places. Where no end group is shown, it is not given here.

Tests used:
[1] = biological target: α3β2[V111I] nAChR mutant (Rattus norvegicus, UniProt P04757+P12390, V135I); assay type: cell-based
[2] = biological target: α3β2[T59K] nAChR mutant (Rattus norvegicus, UniProt P04757+P12390, T83K); assay type: cell-based
[3] = biological target: α4β4 nAChR (Rattus norvegicus, UniProt P09483+P12392); test: cell-based; assay type: cell-based
[4] = biological target: human α3β2 nAChR (Homo sapiens, UniProt P17787+P32297); assay type: cell-based
[5] = biological target: α6/α3β2β3 nAChR (Rattus norvegicus, UniProt P04757+P12390+P43143); test: cell-based; assay type: cell-based
[6] = biological target: α3β2[T59L] nAChR mutant (Rattus norvegicus, UniProt P04757+P12390, T83L); assay type: cell-based
[7] = biological target: α3β4 nAChR (Rattus norvegicus, UniProt P04757+P12392); test: cell-based; assay type: cell-based
[8] = biological target: α7 nAChR (Rattus norvegicus, UniProt Q05941); test: cell-based; assay type: cell-based
[9] = biological target: α3β2[F119Q] nAChR mutant (Rattus norvegicus, UniProt P04757+P12390, F143Q); assay type: cell-based
[10] = biological target: α3β2 nAChR (Rattus norvegicus, UniProt P04757+P12390); test: cell-based; assay type: cell-based
[11] = tested on: Chronic Constriction Injury model of ischiadic nerve (neuralgia); details: rat, in vivo
[12] = tested on: hot-plate pain threshold in Kunming mice; details: mouse, in vivo
[13] = biological target: α3β2[Q34A] nAChR mutant (Rattus norvegicus, UniProt P04757+P12390, Q58A); assay type: cell-based
[14] = biological target: α9α10 nAChR (Rattus norvegicus, UniProt P43144+Q9JLB5); test: cell-based
[15] = biological target: α6/α3β4 nAChR (Rattus norvegicus, UniProt P04757+P12392+P43143); test: cell-based; assay type: cell-based
[16] = biological target: α3β2[K79A] nAChR mutant (Rattus norvegicus, UniProt P04757+P12390, K103A); assay type: cell-based
[17] = biological target: α3β2[T59I] nAChR mutant (Rattus norvegicus, UniProt P04757+P12390, T83I); assay type: cell-based
[18] = biological target: human α6/α3β2β3 nAChR (Homo sapiens, UniProt P17787+P32297+Q15825); test: cell-based; assay type: cell-based
[19] = biological target: α2β2 nAChR (Rattus norvegicus, UniProt P12389+P12390); test: cell-based; assay type: cell-based
[20] = biological target: α4β2 nAChR (Rattus norvegicus, UniProt P09483+P12390); test: cell-based
[21] = biological target: α3β4 acetylcholine receptor; details: read-out: half-blocking dose IC50; cited from earlier work
[22] = tested on: α7/5HT3 chimera; details: read-out: half-blocking dose IC50; cited from earlier work
[23] = biological target: α3β2 acetylcholine receptor (Homo sapiens, UniProt P17787+P32297); details: read-out: half-blocking dose IC50; cited from earlier work
[24] = biological target: α7 acetylcholine receptor (Homo sapiens, UniProt P36544); details: read-out: half-blocking dose IC50; cited from earlier work
[25] = biological target: α9α10 acetylcholine receptor (Homo sapiens, UniProt Q9GZZ6+Q9UGM1); details: read-out: half-blocking dose IC50; cited from earlier work
[26] = biological target: α4β2 acetylcholine receptor (Homo sapiens, UniProt P17787+P43681); details: read-out: half-blocking dose IC50; cited from earlier work
[27] = biological target: α4β4 acetylcholine receptor (Homo sapiens, UniProt P30926+P43681); details: read-out: half-blocking dose IC50; cited from earlier work
[28] = biological target: α6/α3β2β3 acetylcholine receptor; details: read-out: half-blocking dose IC50; cited from earlier work
[29] = biological target: α2β4 acetylcholine receptor (Homo sapiens, UniProt P30926+Q15822); details: read-out: half-blocking dose IC50; cited from earlier work
[30] = biological target: α6/α3β4 acetylcholine receptor; details: read-out: half-blocking dose IC50; cited from earlier work
[31] = biological target: rat α4β4 nAChR (rat, UniProt P09483); test: cell-based or functional assay
[32] = biological target: human α3β2 nAChR (human, UniProt P32297); test: cell-based or functional assay
[33] = biological target: rat α9α10 nAChR (rat, UniProt P43144); test: cell-based or functional assay
[34] = biological target: rat α7 nAChR (rat, UniProt Q05941); test: cell-based or functional assay
[35] = biological target: rat α2β4 nAChR (rat, UniProt P12389); test: cell-based or functional assay
[36] = biological target: rat α2β2 nAChR (rat, UniProt P12389); test: cell-based or functional assay
[37] = biological target: rat α4β2 nAChR (rat, UniProt P09483); test: cell-based or functional assay
[38] = read-out: IC50 (half-blocking dose)

α3β2[T59L] nAChR mutant, sequence (P04757 26-499 limits assumed, stated change not applied): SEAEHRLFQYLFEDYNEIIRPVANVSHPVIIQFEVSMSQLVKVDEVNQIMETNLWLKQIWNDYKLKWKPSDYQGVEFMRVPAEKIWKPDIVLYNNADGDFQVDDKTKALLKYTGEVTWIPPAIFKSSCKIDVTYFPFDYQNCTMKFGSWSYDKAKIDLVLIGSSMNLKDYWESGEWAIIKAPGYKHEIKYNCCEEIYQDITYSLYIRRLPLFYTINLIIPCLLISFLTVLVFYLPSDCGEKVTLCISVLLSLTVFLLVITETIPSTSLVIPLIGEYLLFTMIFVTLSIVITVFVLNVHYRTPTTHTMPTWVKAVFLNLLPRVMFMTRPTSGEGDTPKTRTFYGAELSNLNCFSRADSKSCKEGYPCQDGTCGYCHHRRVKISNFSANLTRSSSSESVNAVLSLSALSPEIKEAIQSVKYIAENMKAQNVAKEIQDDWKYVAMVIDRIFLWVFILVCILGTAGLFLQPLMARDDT
α3β2[T59L] nAChR mutant, sequence (P12390 25-500 T83L limits assumed, stated change not applied): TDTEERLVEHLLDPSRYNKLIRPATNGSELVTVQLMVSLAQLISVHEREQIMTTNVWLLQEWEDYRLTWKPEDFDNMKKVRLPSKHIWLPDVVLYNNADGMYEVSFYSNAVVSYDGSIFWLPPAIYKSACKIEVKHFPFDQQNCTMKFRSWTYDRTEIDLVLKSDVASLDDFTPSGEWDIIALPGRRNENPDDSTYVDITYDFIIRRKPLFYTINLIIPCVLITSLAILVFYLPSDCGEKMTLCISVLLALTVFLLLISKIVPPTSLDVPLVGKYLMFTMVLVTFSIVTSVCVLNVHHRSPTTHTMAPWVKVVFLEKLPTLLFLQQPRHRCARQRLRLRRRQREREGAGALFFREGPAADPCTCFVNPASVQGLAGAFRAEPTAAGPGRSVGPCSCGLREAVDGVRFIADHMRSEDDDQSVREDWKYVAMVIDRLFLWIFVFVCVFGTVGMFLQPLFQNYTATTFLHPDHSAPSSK
α3β2[F119Q] nAChR mutant, sequence (P04757 26-499 limits assumed, stated change not applied): as the sequence (P04757 26-499 limits assumed, stated change not applied) above
α3β2[F119Q] nAChR mutant, sequence (P12390 25-500 F143Q limits assumed, stated change not applied): as the sequence (P12390 25-500 T83L limits assumed, stated change not applied) above, with L59T, F119Q counted along it
α3β2[T59K] nAChR mutant, sequence (P04757 26-499 limits assumed, stated change not applied): as the sequence (P04757 26-499 limits assumed, stated change not applied) above
α3β2[T59K] nAChR mutant, sequence (P12390 25-500 T83K limits assumed, stated change not applied): as the sequence (P12390 25-500 T83L limits assumed, stated change not applied) above, with L59K counted along it
α3β2[V111I] nAChR mutant, sequence (P04757 26-499 limits assumed, stated change not applied): as the sequence (P04757 26-499 limits assumed, stated change not applied) above
α3β2[V111I] nAChR mutant, sequence (P12390 25-500 V135I limits assumed, stated change not applied): as the sequence (P12390 25-500 T83L limits assumed, stated change not applied) above, with L59T, V111I counted along it
α7 acetylcholine receptor, sequence (P36544 23-502 limits assumed): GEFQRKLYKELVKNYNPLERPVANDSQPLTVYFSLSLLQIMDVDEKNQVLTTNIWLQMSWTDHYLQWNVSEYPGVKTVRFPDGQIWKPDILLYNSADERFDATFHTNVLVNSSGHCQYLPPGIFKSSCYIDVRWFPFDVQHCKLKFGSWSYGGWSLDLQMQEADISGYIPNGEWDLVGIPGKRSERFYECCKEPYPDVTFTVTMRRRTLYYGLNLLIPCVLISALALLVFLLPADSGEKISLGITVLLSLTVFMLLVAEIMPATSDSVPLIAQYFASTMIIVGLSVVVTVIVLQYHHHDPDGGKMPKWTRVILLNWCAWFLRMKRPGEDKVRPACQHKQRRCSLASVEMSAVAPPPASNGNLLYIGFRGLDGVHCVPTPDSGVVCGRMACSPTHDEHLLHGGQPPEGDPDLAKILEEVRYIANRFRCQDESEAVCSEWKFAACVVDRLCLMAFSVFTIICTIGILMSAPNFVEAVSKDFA
α7 nAChR, sequence (Q05941 23-502 limits assumed): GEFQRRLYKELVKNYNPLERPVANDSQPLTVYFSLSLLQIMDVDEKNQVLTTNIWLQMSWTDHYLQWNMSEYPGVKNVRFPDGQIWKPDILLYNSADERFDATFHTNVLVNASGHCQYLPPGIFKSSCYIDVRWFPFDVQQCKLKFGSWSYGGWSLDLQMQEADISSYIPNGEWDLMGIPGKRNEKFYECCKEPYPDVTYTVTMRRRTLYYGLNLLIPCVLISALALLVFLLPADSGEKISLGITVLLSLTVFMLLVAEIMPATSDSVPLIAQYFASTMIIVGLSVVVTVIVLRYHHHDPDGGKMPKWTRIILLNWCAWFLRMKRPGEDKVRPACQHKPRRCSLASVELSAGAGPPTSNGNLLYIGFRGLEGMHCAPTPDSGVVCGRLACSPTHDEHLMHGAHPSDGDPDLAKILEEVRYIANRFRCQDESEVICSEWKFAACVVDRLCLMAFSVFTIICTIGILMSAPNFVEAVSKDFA

## CC[C@H](C)[C@@H]1NC(=O)[C@H](CCC(=O)O)NC(=O)[C@@H]2CCCN2C(=O)[C@H](Cc2cnc[nH]2)NC(=O)[C@H](CC(=O)O)NC(=O)[C@H](C(C)C)NC(=O)[C@H](CC(N)=O)NC(=O)[C@@H]2CSSC[C@H](NC(=O)CN)C(=O)N[C@@H](CSSC[C@@H](C(N)=O)NC1=O)C(=O)N[C@@H](CO)C(=O)N[C@@H](Cc1cnc[nH]1)C(=O)N1CCC[C@H]1C(=O)N[C@@H](C)C(=O)N2 [LvIA/LvD21]
[1]
  Elution time after blocking: 1 min
  Hill slope of dose-response curves: 1.31(0.66-1.96)
  current blocked: does not block at all; also recorded: totally did not block
[2]
  Elution time after blocking: 20 min
  Hill slope of dose-response curves: 0.80(0.47-1.13)
  blocking activity times higher than that to wild type α3β2 nAChR: 15 times
  current blocked: blocked all current
[3]
  IC50: > 10000 nM
[3]; [38]
  IC50: > 10000 nM
[4]
  Hill slope of dose-response curve: 0.81 (0.44-1.18)
  blocking activity to α3β2 times higher than to α6/α3β2β3: ~305 times
[5]
  Hill slope of dose-response curve: 0.60(0.48-0.72)
[6]
  Elution time after blocking: 5 to 8 min
  Hill slope of dose-response curves: 1.07(0.77-1.37)
  blocking activity times higher than that to wild type α3β2 nAChR: 7 times
[7]
  Hill slope of dose-response curve: 1.14 (0.72-1.55)
[8]
  Hill slope of dose-response curve: 0.65 (0.43-0.87)
[9]
  Elution time after blocking: 12 min and 10 to 12 min
  Hill slope of dose-response curves: 1.12(0.79-1.44)
  blocking activity times higher than that to wild type α3β2 nAChR: 25 times
  current blocked: blocked all current
[10]
  % of recovered current within elution time: 100%
  Hill slope of dose-response curve: 1.17 (0.88-1.46)
  Hill slope of dose-response curves: 1.17(0.79-1.54)
  blocking activity to α3β2 times higher than to α6/α3β2β3: ~100 times
  blocking of ACh-gated current: specifically blocks; also recorded: completely blocks
  current blocked: about 50%
  time to complete elution after block: ≤ 2 min
[11]
  analgesic effect on neuralgia: potent analgesic effects
  analgesic effect times higher than that of morphine, same weight and dose: 823-1176 times
  average analgesic value (Mechanical Threshold, % of basal): 160%
  mechanical threshold after withdrawal: significantly higher than that of morphine group
[11]; ip
  analgesic value: far higher than morphine
  analgesic value in some cases (Mechanical Threshold, % of basal): up to 200%
  average analgesic value (Mechanical Threshold, % of basal): up to 200%
[12]
  analgesic effect times higher than that of morphine, same weight and dosage: 764-882 times
  pain threshold: 30 s
  pain threshold in comparison with the pain threshold of morphine: 1.3-1.5 times and 1.3 times
[13]
  Elution time after blocking: 2 to 3 min
  Hill slope of dose-response curves: 0.90(0.22-1.58)
[14]
  IC50: > 10000 nM
[14]; [38]
  IC50: > 10000 nM
[15]
  Hill slope of dose-response curve: 0.94 (0.66-1.22)
[16]
  Elution time after blocking: 1 min
  Hill slope of dose-response curves: 0.86(0.43-1.30)
[17]
  Elution time after blocking: 2 min
  Hill slope of dose-response curves: 1.15(0.43-1.86)
[18]
  Hill slope of dose-response curve: 0.85 (0.55-1.15)
  IC50: 5340 nM
[19]
  IC50: > 10000 nM
  blocking of ACh-gated current: totally does not block; also recorded: no blocking activity
[19]; [38]
  IC50: > 10000 nM
[20]
  IC50: > 10000 nM
[20]; [38]
  IC50: > 10000 nM

## GCCSDPRCAWR----C* [ImI]
[21]
  IC50: 3390 nM
[22]
  IC50: 217 nM
[23]
  IC50: 41 nM
[24]
  IC50: 595 nM
[25]
  IC50: 2000 nM

## GCCSHPACAGNNQHIC* [GIC]
[21]
  IC50: 755 nM
[23]
  IC50: 1.1 nM
[26]
  IC50: 309 nM

## GCCSTPPCAVLY---C* [BuIA]
[21]
  IC50: 27.7 nM
[27]
  IC50: 69.9 nM
[23]
  IC50: 5.72 nM
[28]
  IC50: 0.26 to 0.46 nM
[24]
  IC50: 272 nM
[29]
  IC50: 121 nM
[30]
  IC50: 1.54 to 2.1 nM

B1: α-conotoxin LvIA/LvD21 (peptide)
peptide: GCCSHPACNVDHPEIC
modifications: not fully specified; ends and bridges not checked
[31]
  IC50 (half-blocking dose) on ACh-gated current: > 10000 nM
[32]
  IC50 (half-blocking dose) on ACh-gated current: 17.5 nM
[33]
  IC50 (half-blocking dose) on ACh-gated current: > 10000 nM
[34]
  IC50 (half-blocking dose) on ACh-gated current: 3000 nM
[35]
  IC50 (half-blocking dose) on ACh-gated current: 15500 nM
[36]
  IC50 (half-blocking dose) on ACh-gated current: > 10000 nM
[37]
  IC50 (half-blocking dose) on ACh-gated current: > 10000 nM
